According to US11974990B2, “TXNIP-TRX complex inhibitors and methods of using the same” (City of Hope, priority 2018, dated 2024):
Entries after “also recorded” stand apart in the source; their conditions may differ.

Assays:
[1] = system: THP1 cells; assay: Differential gene expression analysis by RNA-seq in high glucose treated THP1 cells; type: cell-based, human; conditions: THP1, HG 25 mM 72 hr with vs without C1 5 uM
Procedure: FIG. 17. Hierarchical Clustering using differential expressed genes. Differential expression was calculated using these counts with edgeR (5, 6) version 3.0. After correcting for differences in library sizes, a fold change of >1.5 and a p-value of <0.05 were applied to select expressed genes. The corrected measures of the latter were further processed using Cluster3.0 (7) to generate a heatmap using Java TreeView. C=HG treated THP-1 cells (A, B are replicates); T=HG+C1 5 uM (C, D are replicates). […]
RNA-seq: Sequence alignment and gene counts. RNA-Seq reads were trimmed to remove sequencing adapters using Trimmomatic (Bolger et al., 2014), and polyA tails using FASTP (Chen et al., 2018). The processed reads were mapped to the human genome (hg19) using STAR software (v. 020201) (Dobin et al., 2013). […]
Differential gene expression analyses by RNA-seq. […] Differential expression analysis was conducted by adjusting read counts to normalized expression values using the TMM normalization method in edgeR package (Robinson et al., 2010). […] Next, Raw counts for each gene in the GENCODE coding gene annotation (hg19) were measured using HTseq (Anders and Huber, 2010) with an argument of “-r pos -s reserve”. Differential expression was calculated using these counts with edgeR (5, 6) version 3.0. […]

[2] = system: TXNIP mRNA; assay: TXNIP mRNA expression (RT-PCR) in human 1.1B4 pancreatic β cells; type: cell-based; conditions: 1.1B4 β cells, 25 mM glucose, 72 h (FIG. 12 left)
Procedure: FIG. 12. […] Human 1.1B4 β cells were cultured in 25 mM glucose with C1 (uM) for 72 h. Total RNA was prepared. RT-PCR was performed. Data shown are the mean+SEM from triplicates. Statistical analysis was performed for each column vs. HG DMSO using one-way ANOVA: *<0.0001.
RNA extraction and quantitative RT-PCR. RNA was extracted using the Direct-zol™ RNA MiniPrep Plus (Zymo Research). Reverse transcription of RNA samples into cDNA was performed using the GeneAmp RNA PCR Kit (Applied Biosystems), dNTP (from Roche Applied Science), Rnase inhibitor, MULV Reverse Transcriptase and Random hexamers reagent (all from Invitrogen). Diluted cDNA was quantified using real-time PCR performed with Power SYBR Green qPCR MasterMix (Applied Biosystem) and 7500 real-time PCR system (Applied Biosystems). The HPRT1 gene was used as an internal control.

[3] = system: TXNIP mRNA; assay: TXNIP mRNA expression (RT-PCR) in THP1 cells under 25 mM glucose; type: cell-based, human; conditions: THP1, 25 mM glucose, concentration range of C1, 72 h (FIG. 9A)
Procedure: FIGS. 9A-9B. FIG. 9A. […] THP1 cells were cultured in 25 mM glucose with the indicated concentrations of C1 for 72 h. Cell were collected for total RNA preparation. RT-PCR were performed and data shown are the mean+SEM from triplicates. Statistical analysis was performed using one-way ANOVA, *<0.0001. FIG. 9B. […] THP1 cells were cultured in 25 mM glucose and C1 (uM) as indicated for 72 hours and collected for total RNA preparation. RT-PCR was performed. Data shown are the mean+SEM from triplicates. Statistical analysis was performed using one-way ANOVA: *<0.02; **<0.0001.
FIG. 13. C1 analogs affects TXNIP mRNA expression in THP1 cells. THP1 cells were cultured in 25 mM glucose with 5 uM of compounds for 72 h. Total RNA was collected and RT-PCR was performed in triplicate and data shown are the mean+SEM. Statistical analysis was performed using one-way ANOVA: *<0.0001.
RNA extraction and quantitative RT-PCR. RNA was extracted using the Direct-zol™ RNA MiniPrep Plus (Zymo Research). […] Diluted cDNA was quantified using real-time PCR performed with Power SYBR Green qPCR MasterMix (Applied Biosystem) and 7500 real-time PCR system (Applied Biosystems). […]
RNA extraction and quantitative RT-PCR. […] Diluted cDNA was quantified using real-time PCR performed with Power SYBR Green qPCR MasterMix (Applied Biosystem) and 7500 real-time PCR system (Applied Biosystems). […]

**Q.** For `CC(C)C(C(=O)O)N1C(=O)c2ccncc2C1=O` (stereo not drawn) [Compound C1, 2-(1,3-dioxo-1,3-dihydro-2H-pyrrolo[3,4-c]pyridin-2-yl)-3-methylbutanoic acid], which “TXNIP and TNF-α expression by RNA-seq” value [1] is on record?
**A.** Its value is “suppressed TXNIP and TNF-α”.

**Q.** What about the “TXNIP mRNA expression” value [2] of the same compound?
**A.** Its value is “affects TXNIP and TNF-α mRNA expression; also recorded: strongly inhibited TXNIP mRNA expression”.

**Q.** And the “TXNIP mRNA expression” value [3]?
**A.** The value was “inhibits TXNIP mRNA expression; also recorded: attenuate high glucose induced expression of inflammatory cytokine molecules and TXNIP in monocytes; also recorded: inhibit TXNIP expression in a dose-dependent manner”.
